Data taken from patent US20250275959A1, “COMPOUNDS AND METHODS OF THEIR USE” (LEXICON PHARMACEUTICALS, INC., priority 2024, published 2025).

How the values were obtained:
hACSL5 [1] = biological target: T1, hACSL5 (Homo sapiens (Human), UniProt Q9ULC5); assay: Cell-based assay (CBA) with B12FA in hACSL5-transfected Expi293F / FlpIn TRex293 cells; conditions: hACSL5-expressing cells
Procedure, shortened: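 hACSL5-expressing Expi293F or tetracycline-induced FlpIn TRex293 cells, serum- and glucose-starved 1 h, then treated 3 h with serially diluted compound plus 20 µM B12FA. After fixation, 630/520 nm emission ratio (ex 485 nm) gave % inhibition versus no-inhibitor and 10 µM compound/non-induced controls; IC50 by Hill fit.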
Target sequence in this assay (Q9ULC5 whole entry): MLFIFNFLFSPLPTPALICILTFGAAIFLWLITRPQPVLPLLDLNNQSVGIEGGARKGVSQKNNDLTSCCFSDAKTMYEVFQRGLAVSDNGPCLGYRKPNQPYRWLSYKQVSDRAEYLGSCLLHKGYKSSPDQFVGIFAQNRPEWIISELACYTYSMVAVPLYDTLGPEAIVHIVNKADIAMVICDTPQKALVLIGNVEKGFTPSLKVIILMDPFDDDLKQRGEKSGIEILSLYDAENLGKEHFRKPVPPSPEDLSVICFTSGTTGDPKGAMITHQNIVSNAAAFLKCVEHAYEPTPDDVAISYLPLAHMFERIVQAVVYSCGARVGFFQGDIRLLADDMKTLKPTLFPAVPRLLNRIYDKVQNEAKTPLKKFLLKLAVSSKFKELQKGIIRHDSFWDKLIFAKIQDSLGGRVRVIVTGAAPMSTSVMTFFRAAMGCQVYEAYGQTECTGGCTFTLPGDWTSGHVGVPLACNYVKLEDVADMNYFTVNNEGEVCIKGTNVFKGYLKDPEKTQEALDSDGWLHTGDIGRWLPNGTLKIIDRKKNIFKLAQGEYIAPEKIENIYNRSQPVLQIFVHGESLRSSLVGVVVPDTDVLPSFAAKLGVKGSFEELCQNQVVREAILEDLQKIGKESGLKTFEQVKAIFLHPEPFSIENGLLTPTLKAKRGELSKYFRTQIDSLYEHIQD

hACSL5 [2] = biological target: T1, hACSL5; assay: Human ACSL5 coupled enzyme Amplex Red assay; format: biochemical; conditions: read-out: hACSL5 IC50
Procedure, shortened: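 Amplex Red coupled readout: 1 mM ATP, 25 μM oleate and 30 μM CoA were added to compound-preincubated enzyme (20 nM, residues 33-683, insect-cell expressed, His-tagged) with coupling peroxidase and acyl-CoA oxidase at pH 7.6. Signal was read at 535/590 nm after 10 minutes at 25° C., and Hill fits yielded half-maximal and maximal inhibition.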
Target sequence in this assay (Q9ULC5 33-683): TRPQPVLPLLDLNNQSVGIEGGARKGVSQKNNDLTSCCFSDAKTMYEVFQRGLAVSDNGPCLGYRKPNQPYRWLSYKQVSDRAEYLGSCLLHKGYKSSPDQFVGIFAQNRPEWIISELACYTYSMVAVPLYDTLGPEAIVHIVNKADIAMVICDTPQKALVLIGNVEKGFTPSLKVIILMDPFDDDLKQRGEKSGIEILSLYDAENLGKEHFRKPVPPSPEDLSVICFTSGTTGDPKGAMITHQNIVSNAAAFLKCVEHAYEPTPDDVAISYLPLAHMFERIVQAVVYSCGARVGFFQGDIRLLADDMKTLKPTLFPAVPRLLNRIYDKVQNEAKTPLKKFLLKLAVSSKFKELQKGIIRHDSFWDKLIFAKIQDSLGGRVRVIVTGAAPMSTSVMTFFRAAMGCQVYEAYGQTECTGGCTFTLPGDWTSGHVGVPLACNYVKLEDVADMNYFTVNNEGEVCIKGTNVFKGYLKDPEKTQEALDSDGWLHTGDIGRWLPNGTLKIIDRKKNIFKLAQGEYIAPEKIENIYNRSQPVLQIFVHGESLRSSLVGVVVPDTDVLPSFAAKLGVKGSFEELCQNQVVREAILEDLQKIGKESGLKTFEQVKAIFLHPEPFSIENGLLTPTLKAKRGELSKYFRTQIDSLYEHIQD

| IC50 (hACSL5 [1]) | IC50 (hACSL5 [2]) | SMILES |
| --- | --- | --- |
| 100 to 500 nM | < 100 nM | CC[C@@H](Oc1ccc(C(=O)NS(=O)(=O)c2ccc(OC3CCN(C)C(C)(C)C3)cc2)c(F)c1F)c1ccc(OCC2CC2)cn1 (stereo partly drawn) [4-((R)-1-(5-(cyclopropylmethoxy)pyridin-2-yl)propoxy)-2,3-difluoro-N-((4-((1,2,2-trimethylpiperidin-4-yl)oxy)phenyl)sulfonyl)benzamide] |
| 100 to 500 nM | < 100 nM | CC[C@@H](Oc1ccc(C(=O)NS(=O)(=O)N2CCN(C)CC2)c(F)c1F)c1cc(Oc2ccccn2)ccn1 [(R)-2,3-difluoro-N-((4-methylpiperazin-1-yl)sulfonyl)-4-(1-(4-(pyridin-2-yloxy)pyridin-2-yl)propoxy)benzamide] |
| 100 to 500 nM | 100 to 500 nM | CC[C@@H](Oc1ccc(C(=O)NS(=O)(=O)C(C)(C)CN(C)C)c(F)c1F)c1ccc(OCC2CC2)cn1 [(R)-4-(1-(5-(cyclopropylmethoxy)pyridin-2-yl)propoxy)-N-((1-(dimethylamino)-2-methylpropan-2-yl)sulfonyl)-2,3-difluorobenzamide] |
| < 100 nM | < 100 nM | CC[C@@H](Oc1ccc(C(=O)NS(=O)(=O)N2CCN(CC)CC2)cc1C(F)(F)F)c1ccc(Oc2ccccn2)cn1 [(R)-N-((4-ethylpiperazin-1-yl)sulfonyl)-4-(1-(5-(pyridin-2-yloxy)pyridin-2-yl)propoxy)-3-(trifluoromethyl)benzamide] |
| < 100 nM | < 100 nM | CC[C@@H](Oc1ccc(C(=O)NS(=O)(=O)N2CCN(C3CC3)CC2)c(F)c1F)c1ccc(OCC2CC2)cn1 [(R)-4-(1-(5-(cyclopropylmethoxy)pyridin-2-yl)propoxy)-N-((4-cyclopropylpiperazin-1-yl)sulfonyl)-2,3-difluorobenzamide] |
| 100 to 500 nM | < 100 nM | CC[C@@H](Oc1ccc(C(=O)NS(=O)(=O)N2CCN(C3CCCC3)CC2)c(F)c1F)c1ccc(Oc2ccccn2)cn1 [(R)-N-((4-cyclopentylpiperazin-1-yl)sulfonyl)-2,3-difluoro-4-(1-(5-(pyridin-2-yloxy)pyridin-2-yl)propoxy)benzamide] |
| > 500 nM | < 100 nM | CC[C@@H](Oc1ccc(C(=O)NS(=O)(=O)N2CCN(C3CCCCC3)CC2)c(F)c1F)c1ccc(OCC2CC2)cn1 [(R)-N-((4-cyclohexylpiperazin-1-yl)sulfonyl)-4-(1-(5-(cyclopropylmethoxy)pyridin-2-yl)propoxy)-2,3-difluorobenzamide] |
| < 100 nM | < 100 nM | CC[C@@H](Oc1ccc(C(=O)NS(=O)(=O)N2CCC(OC3CCN(CCOC)CC3)CC2)c(F)c1F)c1ccc(OCC2CC2)cn1 [(R)-4-(1-(5-(cyclopropylmethoxy)pyridin-2-yl)propoxy)-2,3-difluoro-N-((4-((1-(2-methoxyethyl)piperidin-4-yl)oxy)piperidin-1-yl)sulfonyl)benzamide] |
| 100 to 500 nM | 100 to 500 nM | CC[C@@H](Oc1ccc(C(=O)NS(=O)(=O)N2CCCN(C)CC2)c(F)c1F)c1ccc(OCC2CC2)cn1 [(R)-4-(1-(5-(cyclopropylmethoxy)pyridin-2-yl)propoxy)-2,3-difluoro-N-((4-methyl-1,4-diazepan-1-yl)sulfonyl)benzamide] |
| < 100 nM | < 100 nM | [2H]C([2H])([2H])N1CCC(Oc2ccc(S(=O)(=O)NC(=O)c3ccc(O[C@H](CC)c4ccc(OCC5CC5)cn4)c(F)c3F)cc2)CC1 [(R)-4-(1-(5-(cyclopropylmethoxy)pyridin-2-yl)propoxy)-2,3-difluoro-N-((4-((1-(methyl-d3)piperidin-4-yl)oxy)phenyl)sulfonyl)benzamide] |
| < 100 nM | < 100 nM | C[C@@H](Oc1ccc(C(=O)NS(=O)(=O)N2CCC(OC3CCN(C)CC3)CC2)cc1C(F)(F)F)c1ccc(Oc2ccccn2)cn1 [(R)-N-((4-((1-methylpiperidin-4-yl)oxy)piperidin-1-yl)sulfonyl)-4-(1-(5-(pyridin-2-yloxy)pyridin-2-yl)ethoxy)-3-(trifluoromethyl)benzamide] |
| 100 to 500 nM | < 100 nM | CC[C@@H](Oc1ccc(C(=O)NS(=O)(=O)N2CCC(OC3CCN(C)CC3)CC2)c(F)c1F)c1ccc(OCC2CC2)cn1 [(R)-4-(1-(5-(cyclopropylmethoxy)pyridin-2-yl)propoxy)-2,3-difluoro-N-((4-((1-methylpiperidin-4-yl)oxy)piperidin-1-yl)sulfonyl)benzamide] |
| 100 to 500 nM | < 100 nM | CC[C@@H](Oc1ccc(C(=O)NS(=O)(=O)c2ccc(OC3CCN(C(C)C)CC3)cc2)c(F)c1F)c1ccc(OCC2CC2)cn1 [(R)-4-(1-(5-(cyclopropylmethoxy)pyridin-2-yl)propoxy)-2,3-difluoro-N-((4-((1-isopropylpiperidin-4-yl)oxy)phenyl)sulfonyl)benzamide] |
| 100 to 500 nM | < 100 nM | CC[C@@H](Oc1ccc(C(=O)NS(=O)(=O)c2ccc(OCCN3CCN(C)CC3)cc2)c(F)c1F)c1ccc(OCC2CC2)cn1 [(R)-4-(1-(5-(cyclopropylmethoxy)pyridin-2-yl)propoxy)-2,3-difluoro-N-((4-(2-(4-methylpiperazin-1-yl)ethoxy)phenyl)sulfonyl)benzamide] |
| > 500 nM | < 100 nM | CC[C@@H](Oc1ccc(C(=O)NS(=O)(=O)c2ccc(OC3CCN(C)CC3)nn2)c(F)c1F)c1ccc(OCC2CC2)cn1 [(R)-4-(1-(5-(cyclopropylmethoxy)pyridin-2-yl)propoxy)-2,3-difluoro-N-((6-((1-methylpiperidin-4-yl)oxy)pyridazin-3-yl)sulfonyl)benzamide] |
| > 500 nM | < 100 nM | CC[C@@H](Oc1ccc(C(=O)NS(=O)(=O)c2ccc(NC3CCN(C)CC3)cn2)c(F)c1F)c1ccc(OCC2CC2)cn1 [(R)-4-(1-(5-(cyclopropylmethoxy)pyridin-2-yl)propoxy)-2,3-difluoro-N-((5-((1-methylpiperidin-4-yl)amino)pyridin-2-yl)sulfonyl)benzamide] |
| < 100 nM | < 100 nM | CC[C@@H](Oc1ccc(C(=O)NS(=O)(=O)c2ccc(OC3CCN(CC)CC3)cc2)c(F)c1F)c1ccc(OCC2CC2)cn1 [(R)-4-(1-(5-(cyclopropylmethoxy)pyridin-2-yl)propoxy)-N-((4-((1-ethylpiperidin-4-yl)oxy)phenyl)sulfonyl)-2,3-difluorobenzamide] |
| < 100 nM | < 100 nM | CC[C@@H](Oc1ccc(C(=O)NS(=O)(=O)c2ccc(OC3CCCN(C)C3)cc2)c(F)c1F)c1ccc(Oc2ccccn2)cn1 (stereo partly drawn) [2,3-difluoro-N-((4-((1-methylpiperidin-3-yl)oxy)phenyl)sulfonyl)-4-((R)-1-(5-(pyridin-2-yloxy)pyridin-2-yl)propoxy)benzamide] |
| < 100 nM | < 100 nM | CC[C@@H](Oc1ccc(C(=O)NS(=O)(=O)c2ccc(OC3CCCN(C)C3)cc2)c(F)c1F)c1ccc(OCC2CC2)cn1 (stereo partly drawn) [4-((R)-1-(5-(cyclopropylmethoxy)pyridin-2-yl)propoxy)-2,3-difluoro-N-((4-((1-methylpiperidin-3-yl)oxy)phenyl)sulfonyl)benzamide] |
| < 100 nM | < 100 nM | CC[C@@H](Oc1ccc(C(=O)NS(=O)(=O)N2CCN(C3CC3)CC2)c(F)c1F)c1ccc(Oc2ccccn2)cn1 [(R)-N-((4-cyclopropylpiperazin-1-yl)sulfonyl)-2,3-difluoro-4-(1-(5-(pyridin-2-yloxy)pyridin-2-yl)propoxy)benzamide] |
| 100 to 500 nM | < 100 nM | CC[C@@H](Oc1ccc(C(=O)NS(=O)(=O)c2ccc(OC3CCN(C(C)C)CC3)nc2)c(F)c1F)c1ccc(OCC2CC2)cn1 [(R)-4-(1-(5-(cyclopropylmethoxy)pyridin-2-yl)propoxy)-2,3-difluoro-N-((6-((1-isopropylpiperidin-4-yl)oxy)pyridin-3-yl)sulfonyl)benzamide] |
| 100 to 500 nM | < 100 nM | CC[C@@H](Oc1ccc(C(=O)NS(=O)(=O)c2ccc(OCC[C@H]3CCCCN3C)cc2)c(F)c1F)c1ccc(OCC2CC2)cn1 [4-((R)-1-(5-(cyclopropylmethoxy)pyridin-2-yl)propoxy)-2,3-difluoro-N-((4-(2-((R)-1-methylpiperidin-2-yl)ethoxy)phenyl)sulfonyl)benzamide] |
| < 100 nM | < 100 nM | CC[C@@H](Oc1ccc(C(=O)NS(=O)(=O)N2CCN(C3CCC3)CC2)c(F)c1F)c1ccc(Oc2ccccn2)cn1 [(R)-N-((4-cyclobutylpiperazin-1-yl)sulfonyl)-2,3-difluoro-4-(1-(5-(pyridin-2-yloxy)pyridin-2-yl)propoxy)benzamide] |
| < 100 nM | < 100 nM | CC[C@@H](Oc1ccc(C(=O)NS(=O)(=O)c2ccc(OC3CCN(CC4CC4)CC3)cc2)c(F)c1F)c1ccc(OCC2CC2)cn1 [(R)-4-(1-(5-(cyclopropylmethoxy)pyridin-2-yl)propoxy)-N-((4-((1-(cyclopropylmethyl)piperidin-4-yl)oxy)phenyl)sulfonyl)-2,3-difluorobenzamide] |
| > 500 nM | < 100 nM | CC[C@@H](Oc1ccc(C(=O)NS(=O)(=O)c2ccc(OCCn3ccnc3)cc2)c(F)c1F)c1ccc(OCCOC)cn1 [(R)-N-((4-(2-(1H-imidazol-1-yl)ethoxy)phenyl)sulfonyl)-2,3-difluoro-4-(1-(5-(2-methoxyethoxy)pyridin-2-yl)propoxy)benzamide] |

| SMILES | IC50 (hACSL5 [1]) | IC50 (hACSL5 [2]) |
| --- | --- | --- |
| CC[C@@H](Oc1ccc(C(=O)NS(=O)(=O)N2CCN(C3CC3)CC2)c(F)c1F)c1ccc(OC2CC(OC)C2)cn1 (stereo partly drawn) [N-((4-cyclopropylpiperazin-1-yl)sulfonyl)-2,3-difluoro-4-((R)-1-(5-((1R,3R)-3-methoxycyclobutoxy)pyridin-2-yl)propoxy)benzamide] | 100 to 500 nM | < 100 nM |
